Measurements from PubChem BioAssay AID256 (DTP/NCI, 2004).
Values joined by “and” are separate entries in the source; they are usually repeats but may differ in a detail not shown here. Equal entries are not always repeated. Inconclusive results and toxic doses are left out. The calls were made as follows: active = survival T/C of 150% or more; inactive = T/C below 125% in these data.

Tested on: CD2F1 mice, L1210 leukemia ip, survival T/C
Experiment: NCI In Vivo Anticancer Drug Screen. Data for tumor model L1210 Leukemia (intraperitoneal) in CD2F1 (CDF1) mice
Details: higher = longer survival
Outline: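 Implant tumor; dose compound or vehicle; measure endpoint in both groups; report treated divided by control.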

[1] = endpoint: mean survival time, dose: 12.5 mg/kg/injection, schedule: Q04DX003 (ip), vehicle: saline
[2] = endpoint: mean survival time, dose: 25.0 mg/kg/injection, schedule: Q01DX009 (ip), vehicle: saline
[3] = endpoint: mean survival time, dose: 100.0 mg/kg/injection, schedule: Q04DX002 (ip), vehicle: saline with Tween-80
[4] = endpoint: mean survival time, dose: 200.0 mg/kg/injection, schedule: Q04DX002 (ip), vehicle: saline with Tween-80
[5] = endpoint: mean survival time, dose: 400.0 mg/kg/injection, schedule: Q04DX002 (ip), vehicle: saline with Tween-80
[6] = endpoint: mean survival time, dose: 100.0 mg/kg/injection, schedule: Q04DX003 (ip), vehicle: saline with Tween-80
[7] = endpoint: mean survival time, dose: 200.0 mg/kg/injection, schedule: Q04DX003 (ip), vehicle: saline with Tween-80
[8] = endpoint: mean survival time, dose: 400.0 mg/kg/injection, schedule: Q04DX003 (ip), vehicle: saline with Tween-80

Measured: T/C

CCCCCCCCCCCCCCCC[N+]1(C)CCSCC1
inactive: endpoint: mean survival time, dose: 0.78 mg/kg/injection, schedule: Q01DX009 (ip), vehicle: saline 93 % of control and 103 % of control | endpoint: mean survival time, dose: 1.56 mg/kg/injection, schedule: Q04DX003 (ip), vehicle: saline 106 % of control | endpoint: mean survival time, dose: 3.13 mg/kg/injection, schedule: Q01DX001 (ip), vehicle: saline 104 % of control | endpoint: mean survival time, dose: 3.13 mg/kg/injection, schedule: Q04DX003 (ip), vehicle: saline 110 % of control | endpoint: mean survival time, dose: 6.25 mg/kg/injection, schedule: Q01DX001 (ip), vehicle: saline 104 % of control | endpoint: mean survival time, dose: 6.25 mg/kg/injection, schedule: Q04DX003 (ip), vehicle: saline 104 % of control | endpoint: mean survival time, dose: 12.5 mg/kg/injection, schedule: Q01DX001 (ip), vehicle: saline with Tween-80 97 % of control | endpoint: mean survival time, dose: 12.5 mg/kg/injection, schedule: Q01DX001 (ip), vehicle: saline 104 % of control | [1] 102 % of control | endpoint: mean survival time, dose: 25.0 mg/kg/injection, schedule: Q01DX001 (ip), vehicle: saline with Tween-80 95 % of control | endpoint: mean survival time, dose: 25.0 mg/kg/injection, schedule: Q01DX001 (ip), vehicle: saline 104 % of control | [2] 87 % of control | endpoint: mean survival time, dose: 25.0 mg/kg/injection, schedule: Q04DX002 (ip), vehicle: saline 88 % of control | endpoint: mean survival time, dose: 50.0 mg/kg/injection, schedule: Q01DX001 (ip), vehicle: saline with Tween-80 100 % of control

CC(C)OC(=O)N(C(=O)OC(C)C)c1ccc(F)cc1
inactive: [3] 91 % of control | [4] 97 % of control | [5] 94 % of control

COc1ccc(-n2cnnn2)cc1
inactive: [6] 101 % of control | [7] 106 % of control | [8] 112 % of control

CCCCOC(=O)/C=C(\CC(=O)OCCCC)C(=O)OCCCC
inactive: endpoint: mean survival time, dose: 100.0 mg/kg/injection, schedule: Q01DX001 (ip), vehicle: saline with Tween-80 97 % of control | endpoint: mean survival time, dose: 200.0 mg/kg/injection, schedule: Q01DX001 (ip), vehicle: saline with Tween-80 97 % of control | endpoint: mean survival time, dose: 400.0 mg/kg/injection, schedule: Q01DX001 (ip), vehicle: saline with Tween-80 103 % of control

O=C(O)CCNc1ccc2c(c1)B(O)OC2
inactive: [6] 98 % of control | [7] 101 % of control | [8] 98 % of control

Oc1ccccc1C=NCC[N-]CCN=Cc1ccccc1O.[Co]
inactive: endpoint: mean survival time, dose: 12.5 mg/kg/injection, schedule: Q01DX009 (ip), vehicle: saline 115 % of control | [1] 107 % of control | [2] 103 % of control | endpoint: mean survival time, dose: 25.0 mg/kg/injection, schedule: Q04DX003 (ip), vehicle: saline 100 % of control | endpoint: mean survival time, dose: 50.0 mg/kg/injection, schedule: Q01DX009 (ip), vehicle: saline 97 % of control | endpoint: mean survival time, dose: 50.0 mg/kg/injection, schedule: Q04DX003 (ip), vehicle: saline 103 % of control | endpoint: mean survival time, dose: 100.0 mg/kg/injection, schedule: Q04DX003 (ip), vehicle: saline 107 % of control

CCC(c1ccc2cc(OC)ccc2c1)C(C(=O)O)C(=O)O (configuration not stated)
inactive: endpoint: mean survival time, dose: 100.0 mg/kg/injection, schedule: Q04DX003 (ip), vehicle: Klucel (hydroxypropylcellulose) (HPC) 95 % of control | endpoint: mean survival time, dose: 200.0 mg/kg/injection, schedule: Q04DX003 (ip), vehicle: Klucel (hydroxypropylcellulose) (HPC) 93 % of control

N#CCCC(C#N)(CCC#N)C(N)=O
inactive: [6] 98 % of control | [7] 98 % of control | [8] 107 % of control

CN(CCC#N)C(=O)Nc1ccc(Cl)cc1
inactive: endpoint: mean survival time, dose: 100.0 mg/kg/injection, schedule: Q04DX002 (ip), vehicle: other 106 % of control | endpoint: mean survival time, dose: 200.0 mg/kg/injection, schedule: Q04DX002 (ip), vehicle: other 101 % of control | endpoint: mean survival time, dose: 400.0 mg/kg/injection, schedule: Q04DX002 (ip), vehicle: other 106 % of control

COC(=O)Nc1cccc(-c2nc3ccc(NC(=O)OC)cc3c(=O)n2-c2ccccc2)c1
inactive: endpoint: mean survival time, dose: 50.0 mg/kg/injection, schedule: Q01DX009 (ip), vehicle: Klucel (hydroxypropylcellulose) (HPC) 114 % of control | endpoint: mean survival time, dose: 100.0 mg/kg/injection, schedule: Q01DX009 (ip), vehicle: Klucel (hydroxypropylcellulose) (HPC) 91 % of control | endpoint: median survival time, dose: 50.0 mg/kg/injection, schedule: Q04DX003 (ip), vehicle: saline with Tween-80 101 % of control | endpoint: median survival time, dose: 100.0 mg/kg/injection, schedule: Q04DX003 (ip), vehicle: saline with Tween-80 103 % of control | endpoint: median survival time, dose: 200.0 mg/kg/injection, schedule: Q04DX003 (ip), vehicle: saline with Tween-80 100 % of control

CCOC1=C([N+](=O)[O-])C(c2ccccc2)NC1=O (configuration not stated)
inactive: [6] 95 % of control | [7] 95 % of control | [8] 89 % of control

O=S(=O)(O)O.[NH-]C1CCCCC1[NH-].[Pt+2] (configuration not stated)
inactive: endpoint: mean survival time, dose: 0.04 mg/kg/injection, schedule: Q01DX009 (ip), vehicle: water 109 % of control | endpoint: mean survival time, dose: 0.05 mg/kg/injection, schedule: Q04DX003 (ip), vehicle: water 110 % of control | endpoint: mean survival time, dose: 0.32 mg/kg/injection, schedule: Q01DX001 (ip), vehicle: water 120 % of control | endpoint: mean survival time, dose: 0.63 mg/kg/injection, schedule: Q01DX001 (ip), vehicle: dextrose 124 % of control | endpoint: mean survival time, dose: 0.63 mg/kg/injection, schedule: Q04DX003 (oral), vehicle: water 96 % of control | endpoint: mean survival time, dose: 0.78 mg/kg/injection, schedule: Q04DX003 (ip), vehicle: dextrose 119 % of control | endpoint: mean survival time, dose: 1.2 mg/kg/injection, schedule: Q01DX009 (oral), vehicle: water 100 % of control | endpoint: mean survival time, dose: 1.25 mg/kg/injection, schedule: Q01DX001 (ip), vehicle: dextrose 119 % of control | endpoint: mean survival time, dose: 1.25 mg/kg/injection, schedule: Q01DX001 (oral), vehicle: water 98 % of control | endpoint: mean survival time, dose: 1.25 mg/kg/injection, schedule: Q04DX003 (oral), vehicle: water 98 % of control | endpoint: mean survival time, dose: 1.56 mg/kg/injection, schedule: Q04DX003 (ip), vehicle: saline with Tween-80 100 % of control | endpoint: mean survival time, dose: 2.4 mg/kg/injection, schedule: Q01DX009 (oral), vehicle: water 97 % of control | endpoint: mean survival time, dose: 2.5 mg/kg/injection, schedule: Q01DX001 (ip), vehicle: dextrose 124 % of control | endpoint: mean survival time, dose: 3.12 mg/kg/injection, schedule: Q04DX003 (ip), vehicle: saline with Tween-80 110 % of control | endpoint: mean survival time, dose: 5.0 mg/kg/injection, schedule: Q01DX001 (oral), vehicle: water 100 % of control | endpoint: mean survival time, dose: 10.0 mg/kg/injection, schedule: Q01DX001 (ip), vehicle: dextrose 109 % of control | endpoint: mean survival time, dose: 10.0 mg/kg/injection, schedule: Q04DX003 (oral), vehicle: water 98 % of control | endpoint: mean survival time, dose: 12.5 mg/kg/injection, schedule: Q04DX003 (ip), vehicle: dextrose 110 % of control | [1] 93 % of control | endpoint: mean survival time, dose: 40.0 mg/kg/injection, schedule: Q01DX001 (oral), vehicle: water 109 % of control

C[C@]12CCCC[C@@H]1CC[C@@H]1[C@@H]2CC[C@]2(C)C(=O)CC[C@@H]12
inactive: [6] 92 % of control | [7] 91 % of control | [8] 89 % of control

O=C(O)c1cc(Br)c(O)cc1O
inactive: [6] 97 % of control | [7] 97 % of control | [8] 87 % of control

Oc1ccccc1C=NC1CCCCC1N=Cc1ccccc1O.[Ni] (configuration not stated)
inactive: endpoint: mean survival time, dose: 50.0 mg/kg/injection, schedule: Q04DX002 (ip), vehicle: saline with Tween-80 89 % of control | [3] 97 % of control | [4] 97 % of control | [5] 93 % of control

C=CCSc1cccc2ccccc12
inactive: endpoint: mean survival time, dose: 100.0 mg/kg/injection, schedule: Q01DX009 (ip), vehicle: saline with Tween-80 90 % of control | [6] 104 % of control | endpoint: mean survival time, dose: 200.0 mg/kg/injection, schedule: Q01DX009 (ip), vehicle: saline with Tween-80 96 % of control | [7] 104 % of control | [8] 106 % of control

O=C(O)C1(C(=O)O)CC2(CCC2)C1
inactive: endpoint: mean survival time, dose: 100.0 mg/kg/injection, schedule: Q01DX001 (ip), vehicle: saline 100 % of control | endpoint: mean survival time, dose: 200.0 mg/kg/injection, schedule: Q01DX001 (ip), vehicle: saline 100 % of control | endpoint: mean survival time, dose: 400.0 mg/kg/injection, schedule: Q01DX001 (ip), vehicle: saline 100 % of control
